From PMC12523303, “Multi-Fused S,N-Heterocyclic Compounds for Targeting α-Synuclein Aggregates” (Cells, 2025)
“And” between values parts separate entries of the source, which are not always exact repeats. Identical values can stand only once.

What was measured:
[1] = target: T1, α-synuclein (α-syn) aggregates in PD brain homogenates (Homo sapiens, UniProt P37840); experiment: Two point screening assay (30 nM and 300 nM) vs [3H]asyn-44 in human PD brain homogenates; format: binding; details: for % [3H]asyn-44 remaining at 30 nM / remaining activity at 0.03 µM: 30 nM competitor; for % [3H]asyn-44 remaining at 300 nM / remaining activity at 0.3 µM: 300 nM competitor
T1 construct: Anterior cingulate cortex tissue from a Parkinson’s disease (PD) case; tissue Banner Sun Health Research Institute (Dr. Thomas Beach); host or cells: post-mortem human PD anterior cingulate cortex homogenate
Protocol: Screening assays for the test compounds were performed at two concentrations—30 nM and 300 nM—using unlabelled competitors in human PD brain homogenates against [^3H]asyn-44 as previously described. […] Each assay was conducted in triplicate for both concentrations to ensure reproducibility and statistical reliability.

[2] = Metabolic stability in human liver microsomes; format: in vitro ADME; details: for % disappearance at 5 minutes relative to time zero / % disappearance at 15 minutes relative to time zero / % disappearance at 30 minutes relative to time zero / Clearance Category / remaining at 5 min, 1 μM / remaining at 0.5 h, 1 μM: human liver microsomes; for Clearance Category: as per Cyprotex Website; for half-life at 1 μM: human, pH 7.4, human liver microsomes (h-MR); for half-life at 1 μM / remaining at 5 min, 1 μM / remaining at 0.5 h, 1 μM: pooled human liver microsomes; for remaining at 5 min, 1 μM / remaining at 0.5 h, 1 μM: pH 7.4; for % disappearance at 30 minutes relative to time zero / remaining at 0.5 h, 1 μM: 30 min
Protocol: Metabolic stability assays were conducted using pooled human liver microsomes (HLMs) to evaluate the rate of in vitro metabolic degradation of the test compound. Incubations were carried out in duplicate (n = 2) at a final compound concentration of 1 μM. The protein concentration of the microsomal suspension was adjusted to 0.5 mg/mL using phosphate buffer (100 mM, pH 7.4). Reactions were initiated by the addition of NADPH (final concentration 1 mM) and incubated at 37 °C. Aliquots were taken at four time points: 0, 5, 15, and 30 min. Each reaction was quenched with ice-cold acetonitrile containing internal standard, followed by centrifugation to pellet proteins. Supernatants were analyzed using a validated LC-MS/MS method to determine the concentration of the parent compound at each time point. […] Metabolic stability was assessed by calculating the percentage of the parent compound remaining at each time point. The elimination rate constant (k), half-life (t1/2), and intrinsic clearance (CLint) were derived from the natural log-transformed concentration vs. time data, assuming first-order kinetics.

[3] = target: T1, α-synuclein (α-syn) aggregates in PD brain homogenates; experiment: In vitro competition (Ki) assay vs [3H]asyn-44 in PD brain homogenates; format: binding; details: 1 nM [3H]asyn-44
Protocol: Anterior cingulate cortex tissue from a Parkinson’s disease (PD) case was generously provided by Dr. Thomas Beach at the Banner Sun Health Research Institute in Arizona, USA. […] Preparation of the frozen blocks for binding assays followed previously established protocols.
The equilibrium inhibition constants (Ki) for the unlabelled compounds were measured against [^3H]asyn-44 using our previously reported procedure. For these assays, frozen aliquots of homogenized human brain tissue (stored at −80 °C) were used. Homogenates were prepared at 10 mg/mL in phosphate-buffered saline, then diluted with 50 mM Tris buffer (pH 7.0) to a working concentration of 1 mg/mL.
Unlabeled competitor compounds were initially dissolved in DMSO at 400 μM, then diluted with Tris buffer to 20 μM, resulting in a 5% DMSO concentration. A serial dilution series (ranging from 6 μM to 4 nM) was prepared in the same 5% DMSO/Tris buffer solution to maintain consistent solvent conditions throughout the assay.
To perform the binding assay, 50 μL of the appropriately diluted competitor solution was mixed with 50 μL of [^3H]asyn-44 (1 nM final concentration) and 800 μL of Tris buffer containing 20% ethanol and 0.1% bovine serum albumin (BSA). Then, 100 μL of the 1 mg/mL brain homogenate was added, bringing the final tissue concentration to 100 μg/mL. The reaction mixtures were incubated at room temperature for 60 min before filtration through Whatman GF/B glass fibre filters using a Brandel M-24R cell harvester (Gaithersburg, MD, USA). Filters were washed three times with 3 mL of Tris buffer containing 20% ethanol and 0.1% BSA.
After washing, retained radioactivity was measured using CytoScint-ES scintillation fluid following thorough vortexing. Specific binding was calculated by correcting for nonspecific binding (as described later), and the amount of bound radioligand was derived from the filter-associated radioactivity and the molar activity of the tritiated compound.

SMILES | % [3H]asyn-44 remaining at 30 nM [1] [%] | % [3H]asyn-44 remaining at 300 nM [1] [%] | other results
O=C1NCc2nc(-c3ccc(N4CCC(F)C4)nc3)ccc21 (stereo not shown) [LMD-064] | 46 | 26 | 
F[C@@H]1CCN(c2cnc(-c3ccc4scc(-c5cccnc5)c4n3)cn2)C1 [LMD-045] |  |  | % disappearance at 5 minutes relative to time zero [2]: 34.7%; % disappearance at 15 minutes relative to time zero [2]: 65.6%; % disappearance at 30 minutes relative to time zero [2]: 86.5%; Clearance Category [2]: High; half-life at 1 μM [2]: 10.5 min; remaining at 5 min, 1 μM [2]: 65.3%; remaining at 0.5 h, 1 μM [2]: 13.5%; Ki [3]: 13 nM and 13.3 nM; remaining activity at 0.03 µM [1]: 36%; remaining activity at 0.3 µM [1]: 13%
FC1CCN(c2ccc(-n3cc4sc(-c5cncs5)cc4n3)cn2)C1 (stereo not shown) [LMD-028] | 81 | 38 | 
F[C@@H]1CCN(c2ccc(-c3ccc4sc(-c5cncs5)cc4n3)cn2)C1 [LMD-006] |  |  | % disappearance at 5 minutes relative to time zero [2]: 60.2%; % disappearance at 15 minutes relative to time zero [2]: 88.1%; % disappearance at 30 minutes relative to time zero [2]: 95.7%; Clearance Category [2]: High; half-life at 1 μM [2]: 6.81 min; remaining at 5 min, 1 μM [2]: 39.6%; remaining at 0.5 h, 1 μM [2]: 4.32%; Ki [3]: 12 nM; remaining activity at 0.03 µM [1]: 53%; remaining activity at 0.3 µM [1]: 2%
Cn1ccc(N2Cc3nc(-c4cnc(N5CCC(F)C5)cn4)ccc3C2=O)n1 (stereo not shown) [LMD-017] | 43 | 25 | 
F[C@@H]1CCN(c2cc(-n3cc4sc(-c5cccnc5)cc4n3)ncn2)C1 [LMD-052] |  |  | % disappearance at 5 minutes relative to time zero [2]: 60.3%; % disappearance at 15 minutes relative to time zero [2]: 82.8%; % disappearance at 30 minutes relative to time zero [2]: 94.4%; Clearance Category [2]: High; half-life at 1 μM [2]: 7.6 min; remaining at 5 min, 1 μM [2]: 39.7%; remaining at 0.5 h, 1 μM [2]: 5.61%; Ki [3]: 6 nM; remaining activity at 0.03 µM [1]: 27%; remaining activity at 0.3 µM [1]: 2%
FC1CCN(c2cnc(-c3ccc4sc(-c5cncs5)cc4n3)cn2)CC1 [LMD-062] | 43 | 32 | 
FC1CCN(c2cnc(-n3cc4sc(-c5cncs5)cc4n3)cn2)C1 (stereo not shown) [LMD-029] | 34 | 12 | Ki [3]: 13 nM
Cn1ccc(-c2cc3c(cnn3-c3ccc(N4CCC(F)C4)nn3)s2)n1 (stereo not shown) [LMD-072] | 48 | 33 | 
Cn1ccc(-c2cc3c(cnn3-c3nccc(N4CCC(F)CC4)n3)s2)n1 [LMD-076] | 64 | 22 | 
CC1CCN(c2ncc(-c3ccc4sc(-c5cccnc5)cc4n3)cc2F)C1 (stereo not shown) [LMD-001] | 72 | 39 | 
FC1CCN(c2ccnc(-n3ncc4sc(-c5cccnc5)cc43)n2)C1 (stereo not shown) [LMD-070] | 43 | 22 | 
Cn1ccc(-c2cc3nn(-c4cc(N5CCC(F)CC5)ncn4)cc3s2)n1 [LMD-074] | 55 | 45 | 
COc1cncc(-c2cc3nc(-c4cnc(N5CCC(F)C5)cn4)ccc3s2)c1 (stereo not shown) [LMD-015] | 46 | 21 | 
Cn1cnc(N2Cc3nc(-c4ccc(N5CCC(F)C5)nc4)ccc3C2=O)c1 (stereo not shown) [LMD-023] | 99 | 50 | 
F[C@@H]1CCN(c2cnc(-c3ccc4sc(-c5cncs5)cc4n3)cn2)C1 [LMD-014] | 45 | 20 | 
Cn1ccc(-c2csc3ccc(-c4ccc(N5CCC(F)C5)nc4)nc23)n1 (stereo not shown) [LMD-063] | 64 | 33 | 
F[C@@H]1CCN(c2cnc(-n3cc4sc(-c5cccnc5)cc4n3)cn2)C1 [LMD-033] | 51 | 33 | 
FC1CCN(c2ccnc(-n3cc4sc(-c5cccnc5)cc4n3)n2)C1 (stereo not shown) [LMD-061] | 56 | 29 | 
FC1CCN(c2cnc(-c3ccc4sccc4n3)cn2)C1 (stereo not shown) [LMD-039] | 57 | 27 | 
FC1CCN(c2cnc(-c3ccc4sc(-c5cccnc5)cc4n3)cn2)C1 (stereo not shown) [LMD-009] | 45 | 17 | 

SMILES | % [3H]asyn-44 remaining at 30 nM [1] [%] | % [3H]asyn-44 remaining at 300 nM [1] [%] | other results
Cn1ccc(-c2cc3nn(-c4cnc(N5CCC(F)CC5)cn4)cc3s2)n1 [LMD-066] | 76 | 51 | 
FC1CCC(c2cnc(-n3cc4sccc4n3)cn2)C1 (stereo not shown) [LMD-031] | 66 | 24 | 
FC1CCN(c2ccc(-c3csc4ccc(-c5cccnc5)nc34)cn2)C1 (stereo not shown) [LMD-026] | 56 | 25 | 
FC1CCN(c2cc(Cl)ncc2-c2ccc3sc(-c4cccnc4)cc3n2)C1 (stereo not shown) [LMD-049] | 89 | 35 | 
Cn1ccc(-c2cc3nn(-c4nccc(N5CCC(F)CC5)n4)cc3s2)n1 [LMD-075] | 41 | 19 | 
Cn1ccc(-c2cc3nc(-c4ccc(N5CCC(F)C5)nc4)ccc3s2)n1 (stereo not shown) [LMD-005] | 112 | 64 | 
FC1CCN(c2cc(-n3ncc4sc(-c5cccnc5)cc43)ncn2)C1 (stereo not shown) [LMD-073] | 71 | 29 | 
Cn1ccc(N2Cc3nc(-c4ccc(N5CCC(F)C5)nc4)ccc3C2=O)n1 (stereo not shown) [LMD-016] | 91 | 48 | 
Cn1ccc(-c2cc3nn(-c4ccc(N5CCC(F)C5)nn4)cc3s2)n1 (stereo not shown) [LMD-067] | 86 | 28 | 
Cn1ccc(-c2cc3c(cnn3-c3cc(N4CCC(F)CC4)ncn3)s2)n1 [LMD-077] | 67 | 20 | 
FC1CCN(c2cc(-n3cc4sc(-c5cccnc5)cc4n3)ncn2)CC1 [LMD-068] | 50 | 34 | 
Cn1ccc(-c2cc3nn(-c4cnc(N5CCC(F)C5)cn4)cc3s2)n1 (stereo not shown) [LMD-054] | 58 | 15 | Ki [3]: 24 nM
O=C1c2ccc(-c3ccc(N4CCC(F)C4)nc3)nc2CN1c1cccnc1 (stereo not shown) [LMD-019] | 66 | 27 | 
Cn1ccc(-c2cc3nc(-c4cnc(N5CCC(F)C5)cn4)ccc3s2)n1 (stereo not shown) [LMD-013] | 87 | 58 | 
FC1CCN(c2cnc(-c3ccc4sccc4n3)cn2)CC1 [LMD-036] | 65 | 23 | 
FC1CCN(c2ccc(-c3ccc4scc(Br)c4n3)cn2)C1 (stereo not shown) [LMD-040] | 54 | 28 | 
FC1CCN(c2ccc(-c3cc4nc(-c5cccnc5)ccc4s3)cn2)C1 (stereo not shown) [LMD-024] | 72 | 13 | Ki [3]: 54 nM
Fc1cc(-c2ccc3sc(-c4cccnc4)cc3n2)cnc1N1CCCC1 [LMD-002] | 57 | 21 | 
Cn1ccc(-c2cc3nc(-c4cnc(N5CCC(F)CC5)cn4)ccc3s2)n1 [LMD-060] | 48 | 29 | 
FC1CCN(c2ccnc(-n3cc4sc(-c5cccnc5)cc4n3)n2)CC1 [LMD-069] | 49 | 31 | 
FC1CCN(c2ccc(-c3ccc4scc(-c5cccnc5)c4n3)cn2)C1 (stereo not shown) [LMD-041] | 77 | 13 | Ki [3]: 58 nM
